Data taken from PubChem BioAssay (NCI).
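Values below derive from 48-hour exposures of cells grown in 96-well plates, with endpoints linearly interpolated between the two concentrations bracketing the appropriate inhibition level. GI50 marks 50% less growth. Definition used: TGI = concentration required for complete inhibition of growth.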

Legend:
Assay in all cases: NCI tumour cell line growth inhibition, 48 h
786-0 renal = system: 786-0 renal
A498 renal = system: A498 renal
A549 NSCLC = system: A549 NSCLC
ACHN renal = system: ACHN renal
BT-549 breast = system: BT-549 breast
CAKI-1 renal = system: CAKI-1 renal
CCRF-CEM leukemia = system: CCRF-CEM leukemia
COLO 205 colon = system: COLO 205 colon
DU-145 prostate = system: DU-145 prostate
EKVX NSCLC = system: EKVX NSCLC
HCC-2998 colon = system: HCC-2998 colon
HCT-116 colon = system: HCT-116 colon
HCT-15 colon = system: HCT-15 colon
HL-60(TB) leukemia = system: HL-60(TB) leukemia
HOP-62 NSCLC = system: HOP-62 NSCLC
HOP-92 NSCLC = system: HOP-92 NSCLC
HS 578T breast = system: HS 578T breast
HT29 colon = system: HT29 colon
IGROV1 ovarian = system: IGROV1 ovarian
K-562 leukemia = system: K-562 leukemia
KM12 colon = system: KM12 colon
LOX IMVI melanoma = system: LOX IMVI melanoma
M14 melanoma = system: M14 melanoma
MALME-3M melanoma = system: MALME-3M melanoma
MCF7 breast = system: MCF7 breast
MDA-MB-231 breast = system: MDA-MB-231 breast
MDA-MB-435 = system: MDA-MB-435
MOLT-4 leukemia = system: MOLT-4 leukemia
NCI-H226 lung = system: NCI-H226 lung
NCI-H23 lung = system: NCI-H23 lung
NCI-H460 lung = system: NCI-H460 lung
NCI-H522 lung = system: NCI-H522 lung
NCI/ADR-RES ovarian = system: NCI/ADR-RES ovarian
OVCAR-3 ovarian = system: OVCAR-3 ovarian
OVCAR-4 ovarian = system: OVCAR-4 ovarian
OVCAR-5 ovarian = system: OVCAR-5 ovarian
OVCAR-8 ovarian = system: OVCAR-8 ovarian
PC-3 prostate = system: PC-3 prostate
RPMI-8226 leukemia = system: RPMI-8226 leukemia
RXF 393 renal = system: RXF 393 renal
SF-268 CNS = system: SF-268 CNS
SF-295 CNS = system: SF-295 CNS
SF-539 CNS = system: SF-539 CNS
SK-MEL-2 melanoma = system: SK-MEL-2 melanoma
SK-MEL-28 melanoma = system: SK-MEL-28 melanoma
SK-MEL-5 melanoma = system: SK-MEL-5 melanoma
SK-OV-3 ovarian = system: SK-OV-3 ovarian
SN12C renal = system: SN12C renal
SNB-19 CNS = system: SNB-19 CNS
SNB-75 CNS = system: SNB-75 CNS
SR leukemia = system: SR leukemia
SW-620 colon = system: SW-620 colon
T-47D breast = system: T-47D breast
TK-10 renal = system: TK-10 renal
U251 CNS = system: U251 CNS
UACC-257 melanoma = system: UACC-257 melanoma
UACC-62 melanoma = system: UACC-62 melanoma
UO-31 renal = system: UO-31 renal

Question: Which results are given for `CC(C)=CC(=O)OCC(=O)O[C@@H]1C[C@]2(C(C)C)O[C@@]1(C)[C@@H]1CC[C@@H](C)[C@H]1[C@@H]2OC(=O)/C=C/c1ccccc1`?
Answer: GI50 (786-0 renal): 7.21 µM; TGI (786-0 renal): > 100 µM; GI50 (A498 renal): 0.179 µM; TGI (A498 renal): 0.679 µM; GI50 (A549 NSCLC): > 57.2 µM; TGI (A549 NSCLC): > 100 µM; GI50 (ACHN renal): 0.3 µM; TGI (ACHN renal): > 19.6 µM; GI50 (BT-549 breast): 2.11 µM; TGI (BT-549 breast): > 73.2 µM; GI50 (CAKI-1 renal): 0.346 µM; GI50 (CCRF-CEM leukemia): 29.6 µM; TGI (CCRF-CEM leukemia): > 100 µM; GI50 (COLO 205 colon): > 48.5 µM; TGI (COLO 205 colon): > 65.3 µM; GI50 (DU-145 prostate): > 69.2 µM; TGI (DU-145 prostate): > 100 µM; GI50 (EKVX NSCLC): > 51 µM; TGI (EKVX NSCLC): > 100 µM; GI50 (HCC-2998 colon): > 57.2 µM; TGI (HCC-2998 colon): > 100 µM; GI50 (HCT-116 colon): 11 µM; TGI (HCT-116 colon): > 100 µM; GI50 (HCT-15 colon): 42.1 µM; TGI (HCT-15 colon): > 100 µM; GI50 (HL-60(TB) leukemia): 11.6 µM; TGI (HL-60(TB) leukemia): > 69.4 µM; GI50 (HOP-62 NSCLC): > 62.3 µM; TGI (HOP-62 NSCLC): > 100 µM; GI50 (HOP-92 NSCLC): 5.18 µM; TGI (HOP-92 NSCLC): > 75.4 µM; GI50 (HS 578T breast): 0.064 µM; TGI (HS 578T breast): 0.548 µM; GI50 (HT29 colon): > 56.4 µM; TGI (HT29 colon): > 100 µM; GI50 (IGROV1 ovarian): > 61.8 µM; TGI (IGROV1 ovarian): > 100 µM; GI50 (K-562 leukemia): 7.75 µM; TGI (K-562 leukemia): > 100 µM; GI50 (KM12 colon): > 56 µM; TGI (KM12 colon): > 100 µM; GI50 (LOX IMVI melanoma): 33.4 µM; TGI (LOX IMVI melanoma): > 70.5 µM; GI50 (M14 melanoma): > 57.8 µM; TGI (M14 melanoma): > 100 µM; GI50 (MALME-3M melanoma): > 55.5 µM; TGI (MALME-3M melanoma): > 100 µM; GI50 (MCF7 breast): 35.3 µM; TGI (MCF7 breast): > 100 µM; GI50 (MDA-MB-231 breast): > 51.7 µM; TGI (MDA-MB-231 breast): > 85.2 µM; GI50 (MDA-MB-435): > 67.9 µM; TGI (MDA-MB-435): > 100 µM; GI50 (MOLT-4 leukemia): 43.4 µM; TGI (MOLT-4 leukemia): > 100 µM; GI50 (NCI-H226 lung): 9.47 µM; TGI (NCI-H226 lung): > 94.1 µM; GI50 (NCI-H23 lung): > 50.4 µM; TGI (NCI-H23 lung): > 96.4 µM; GI50 (NCI-H460 lung): > 63 µM; TGI (NCI-H460 lung): > 100 µM; GI50 (NCI-H522 lung): > 62.1 µM; TGI (NCI-H522 lung): > 100 µM; GI50 (NCI/ADR-RES ovarian): 2.25 µM; TGI (NCI/ADR-RES ovarian): > 85.5 µM; GI50 (OVCAR-3 ovarian): > 42.3 µM; TGI (OVCAR-3 ovarian): > 100 µM; GI50 (OVCAR-4 ovarian): 30.2 µM; TGI (OVCAR-4 ovarian): > 100 µM; GI50 (OVCAR-5 ovarian): > 62.7 µM; TGI (OVCAR-5 ovarian): > 100 µM; GI50 (OVCAR-8 ovarian): 0.912 µM; TGI (OVCAR-8 ovarian): > 72.9 µM; GI50 (PC-3 prostate): 6.01 µM; TGI (PC-3 prostate): > 100 µM; GI50 (RPMI-8226 leukemia): 7.89 µM; TGI (RPMI-8226 leukemia): > 100 µM; GI50 (RXF 393 renal): 0.382 µM; TGI (RXF 393 renal): 11.7 µM; GI50 (SF-268 CNS): > 38.1 µM; TGI (SF-268 CNS): > 100 µM; GI50 (SF-295 CNS): > 48.3 µM; TGI (SF-295 CNS): > 100 µM; GI50 (SF-539 CNS): > 72.7 µM; TGI (SF-539 CNS): > 100 µM; GI50 (SK-MEL-2 melanoma): > 56.4 µM; TGI (SK-MEL-2 melanoma): > 85.9 µM; GI50 (SK-MEL-28 melanoma): > 63.3 µM; TGI (SK-MEL-28 melanoma): > 100 µM; GI50 (SK-MEL-5 melanoma): 49.2 µM; TGI (SK-MEL-5 melanoma): > 66.1 µM; GI50 (SK-OV-3 ovarian): > 55.7 µM; TGI (SK-OV-3 ovarian): > 100 µM; GI50 (SN12C renal): 5.9 µM; TGI (SN12C renal): > 93.2 µM; GI50 (SNB-19 CNS): > 58.5 µM; TGI (SNB-19 CNS): > 100 µM; GI50 (SNB-75 CNS): 34.2 µM; TGI (SNB-75 CNS): > 87.5 µM; GI50 (SR leukemia): 11.1 µM; TGI (SR leukemia): > 100 µM; GI50 (SW-620 colon): > 60.4 µM; TGI (SW-620 colon): > 100 µM; GI50 (T-47D breast): 18.9 µM; TGI (T-47D breast): > 100 µM; GI50 (TK-10 renal): > 70.4 µM; TGI (TK-10 renal): > 100 µM; GI50 (U251 CNS): > 56.4 µM; TGI (U251 CNS): > 100 µM; GI50 (UACC-257 melanoma): > 47.5 µM; TGI (UACC-257 melanoma): > 94.3 µM; GI50 (UACC-62 melanoma): 24.4 µM; TGI (UACC-62 melanoma): > 100 µM; GI50 (UO-31 renal): 0.239 µM; TGI (UO-31 renal): 2.36 µM
